In ChEMBL document CHEMBL1201862, “PubChem BioAssay data set” (2004):
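Values below derive from 48-hour exposures of cells grown in 96-well plates, with endpoints linearly interpolated between the two concentrations bracketing the appropriate inhibition level. GI50 marks 50% less growth.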 Activity calls are given as the source filed them. Cut-off read from the data, not from the text of the source: active = GI50 up to about 1.1 µM and inactive = higher.

Key:
Assay in all cases: NCI-60 cell line screen, 48 h
DMS-114 = tested on: DMS-114
UACC-257 = tested on: UACC-257
SF-295 = tested on: SF-295
MOLT-4 = tested on: MOLT-4
SK-MEL-28 = tested on: SK-MEL-28
DLD-1 = tested on: DLD-1
SW-620 = tested on: SW-620
KM12 = tested on: KM12
HL-60 = tested on: HL-60
TK-10 = tested on: TK-10
K562 = tested on: K562
A549 = tested on: A549
NCI-H23 = tested on: NCI-H23
SF-268 = tested on: SF-268
OVCAR-5 = tested on: OVCAR-5
SK-OV-3 = tested on: SK-OV-3
HCC 2998 = tested on: HCC 2998
HCT-116 = tested on: HCT-116
COLO 205 = tested on: COLO 205
ACHN = tested on: ACHN
SNB-75 = tested on: SNB-75
SNB-78 = tested on: SNB-78
HOP-62 = tested on: HOP-62
LXFL 529 = tested on: LXFL 529
UO-31 = tested on: UO-31
HOP-92 = tested on: HOP-92
NCI-H522 = tested on: NCI-H522
CCRF-CEM = tested on: CCRF-CEM
RXF 393 = tested on: RXF 393
UACC-62 = tested on: UACC-62
IGROV-1 = tested on: IGROV-1
NCI-H460 = tested on: NCI-H460
SK-MEL-5 = tested on: SK-MEL-5
SF-539 = tested on: SF-539
NCI-H226 = tested on: NCI-H226
HT-29 = tested on: HT-29
OVCAR-8 = tested on: OVCAR-8
786-0 = tested on: 786-0
CAKI-1 = tested on: CAKI-1
DMS-273 = tested on: DMS-273
M14 = tested on: M14
SK-MEL-2 = tested on: SK-MEL-2
OVCAR-3 = tested on: OVCAR-3
M19-MEL = tested on: M19-MEL
SN12C = tested on: SN12C
U-251 = tested on: U-251
KM-20L2 = tested on: KM-20L2
SR = tested on: SR
LOX IMVI = tested on: LOX IMVI
SNB-19 = tested on: SNB-19
RPMI-8226 = tested on: RPMI-8226
EKVX = tested on: EKVX
A498 = tested on: A498
Malme-3M = tested on: Malme-3M

Measured: GI50

O=S1(=O)c2ccccc2N(O)C2=NCCN21
inactive: DMS-114 > 100 µM | UACC-257 > 100 µM | SF-295 > 100 µM | MOLT-4 > 100 µM | SK-MEL-28 > 100 µM | DLD-1 > 100 µM | SW-620 > 100 µM | KM12 > 100 µM | HL-60 > 100 µM | TK-10 > 100 µM | K562 > 100 µM | A549 > 100 µM | NCI-H23 > 100 µM | SF-268 > 100 µM | OVCAR-5 > 100 µM | SK-OV-3 > 100 µM | HCC 2998 > 100 µM | HCT-116 > 100 µM | COLO 205 > 100 µM | ACHN > 100 µM | SNB-75 > 100 µM | SNB-78 > 100 µM | HOP-62 > 100 µM | LXFL 529 > 100 µM | UO-31 > 100 µM | HOP-92 > 100 µM | NCI-H522 > 100 µM | CCRF-CEM > 100 µM | RXF 393 > 100 µM | UACC-62 > 100 µM | IGROV-1 > 100 µM | NCI-H460 > 100 µM | SK-MEL-5 > 100 µM | SF-539 > 100 µM | NCI-H226 25.9 µM | HT-29 > 100 µM | OVCAR-8 > 100 µM | 786-0 > 100 µM | CAKI-1 > 100 µM | DMS-273 > 100 µM | M14 > 100 µM | SK-MEL-2 > 100 µM | OVCAR-3 > 100 µM | M19-MEL > 100 µM | SN12C > 100 µM | U-251 > 100 µM | KM-20L2 > 100 µM | SR > 100 µM | LOX IMVI > 100 µM | SNB-19 > 100 µM | RPMI-8226 > 100 µM | EKVX > 100 µM | A498 28.6 µM | Malme-3M > 100 µM
